Data set [1] has as its system human hepatocytes (hES15). As to the kind of experiment: Cytokine ELISA secretion profiling of human hepatocytes after drug treatment.
Description: Upon completion of the culture, the maturation of hepatocytes was induced by the same manner as described in Example 1 and then the matured hepatocytes were obtained (FIG. 1).
(§1) Particularly, the hepatocytes at 19th day of the differentiation from human stem cells, which were prepared by the method described in Example 1, were distributed in a 6-well plate (90%/well), and then the medium was replaced with 1000 mg/L DMEM-low glucose medium (Dulbecco's Modified Eagle's Medium, Welgene No. 001-11), followed by culture for 2 hours. Then, the stem cell derived hepatocyte culture medium was obtained. To eliminate by-products of the cell culture, centrifugation was performed at 12,000×g, for 20 minutes at 4° C. Supernatant was obtained. The capture antibodies, 2.5 μg/ml anti-IL-1β antibody, 2 μg/ml anti-IL-6 antibody, 2.5 μg/ml anti-IL-10 antibody, 2 μg/ml anti-IL-12 antibody, 1 μg/ml anti-TNF-α antibody, 2 μg/ml anti-IFN-α antibody, 1 μg/ml anti-IFN-β antibody, and 2 μg/ml anti-TGF-β antibody, were cultured at 37° C. for 2 hours, with which 96-well ELISA plate was coated. The plate was washed, followed by blocking with 0.2% I-block (Foster city, CA) at 37° C. for 2 hours. Upon completion of the blocking, the capture antibodies were washed and cultured with a standard material (2 fold serial diluted in protein free flexible plate from 10 ng/ml to 4.88 pg/ml) and the supernatant in ELISA plate (Greiner, Kremsmunster, Austria) at 37° C. for 2 hours. Upon completion of the culture, the biotinylated detection antibodies (anti-IL-1β antibody: 2 μg/ml, anti-IL-6 antibody: 1 μg/ml, anti-IL-10 antibody: 1 μg/ml, anti-IL-12 antibody: 1 μg/ml, anti-TNF-α antibody: 1 μg/ml, anti-IFN-α antibody: 4 μg/ml, anti-IFN-β antibody: 2 μg/ml, anti-TGF-β antibody: 1 μg/ml, final concentration) were added thereto, followed by further culture at 37° C. for 2 hours. Then, alkaline phosphatase conjugated streptavidin was added thereto, followed by further culture at room temperature for 30 minutes. 5 mM nitrophenyl phosphate substrate was added thereto, and OD405 was measured by using ELISA reader.
Particularly, the hepatocytes at 19th day of the differentiation from human stem cells, which were prepared by the method described in Example 1, were distributed in a 6-well plate (90%/well), and then the medium was replaced with 1000 mg/L DMEM-low glucose medium (Dulbecco's Modified Eagle's Medium, Welgene No. 001-11), followed by culture for 2 hours. […] Then, culture fluids of the hepatocytes differentiated from stem cells and the human hepatocytes were obtained to extract immunotoxic materials therefrom. To eliminate by-products of the cultured cells, centrifugation was performed at 12,000×g for 20 minutes at 4° C., and then supernatant was obtained. […]
For data set [2], the system named is hepatocytes differentiated from human embryonic stem cells (hESC4). The data set is described as follows: Cytokine ELISA secretion profiling of stem cell derived hepatocytes after drug treatment. The following applies: ELISA of supernatant.
Description: as §1
(§2) Particularly, the hepatocytes at 19th day of the differentiation from human stem cells, which were prepared by the method described in Example 1, were distributed in a 6-well plate (90%/well), and then the medium was replaced with 1000 mg/L DMEM-low glucose medium (Dulbecco's Modified Eagle's Medium, Welgene No. 001-11), followed by culture for 2 hours.
Data set [3] has the same test system.
Description: as §1, §2
[4] abbreviates: CCl4 0, 5, 10, 20 mM for 24 hours, ELISA of supernatant.
[5] abbreviates: CCl4 0, 5, 10, 20 mM for 24 hours.

Turning to `ClC(Cl)(Cl)Cl` [CCl4], the IFN-α detected entry in data set [1] (setting [4]) was “also detected in the cells”; in data set [2] (setting [5]), “detected in the cells CCl4 dose dependently”. Besides, the IL-10 detected result in data set [1] (setting [4]) is “also detected in the cells”; in data set [2] (setting [5]), “detected in the cells CCl4 dose dependently”. Moreover, the “cytokine secretion compared with hepatocytes differentiated from stem cells” value in data set [1] (considering the smaller number of human hepatocytes, CCl4: cytokines, acetaminophen: IL-6 and IFN-β) is listed as “secreted more in human hepatocytes”. Also, the IL-6 detected result in data set [1] (treatment for 24 hours (CCl4 0, 5, 10, 20 mM; acetaminophen 0, 10, 20 mM), ELISA of supernatant) is “also detected in the cells”; in data set [2] (treatment for 24 hours (CCl4 0, 5, 10, 20 mM; acetaminophen 0, 10, 20 mM)), “detected in the cells CCl4 dose dependently”.
For the molecule `CCO` [ethanol], in data set [3], the “ethanol induced toxic reaction” value is “did not show ethanol induced toxic reaction”.

For the origin of these results see US20170052172A1, “IMMUNE HEPATOTOXICITY SCREENING METHOD USING HEPATOCYTES DERIVED FROM HUMAN STEM CELLS” (KOREA ADVANCED INSTITUTE OF SCIENCE AND TECHNOLOGY, priority 2014, published 2017).
